Assay results published in publication PMC4364556, “Comparative Distribution and In Vitro Activities of the Urotensin II-Related Peptides URP1 and URP2 in Zebrafish: Evidence for Their Colocalization in Spinal Cerebrospinal Fluid-Contacting Neurons” (PLoS ONE, 2015).
Where a SMILES comes first, the peptide text is derived from it. Bridges are numbered along the chain shown (N, C = ends).

Biological target: T1, human UII receptor (hUT) (Homo sapiens, UniProt Q9UKP6)
T1 construct: expressed in transfected cells
T1 sequence (Q9UKP6 1-389): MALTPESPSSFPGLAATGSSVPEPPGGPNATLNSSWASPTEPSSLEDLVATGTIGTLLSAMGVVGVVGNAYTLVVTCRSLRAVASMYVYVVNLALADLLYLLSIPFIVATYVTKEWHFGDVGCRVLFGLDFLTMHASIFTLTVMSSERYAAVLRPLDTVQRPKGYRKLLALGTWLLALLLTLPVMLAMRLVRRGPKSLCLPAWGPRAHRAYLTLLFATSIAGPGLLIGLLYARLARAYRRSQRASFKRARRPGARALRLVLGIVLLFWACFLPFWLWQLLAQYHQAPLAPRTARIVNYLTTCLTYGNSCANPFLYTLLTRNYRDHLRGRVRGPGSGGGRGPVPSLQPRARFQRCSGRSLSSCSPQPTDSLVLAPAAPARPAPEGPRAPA
Assay: Intracellular calcium mobilization assay (hUT-CHO cells)
Format: cell-based
Conditions: for EC50: agonist, CHO cells stably transfected with human UT, Fluo-4 AM, 37°C, fluorescence 485/525 nm, 180 sec, peptides 10^-12 to 10^-6 M, peak fluorescence, four-parameter logistic, mean ± SEM of 7–13 independent experiments, read-out: pEC50, intracellular calcium mobilization (converted); for comparison of potency of URP1 and URP2 to activate the hUT: URP1 vs URP2; for times less potent than hUII to mobilize intracellular calcium: compared with hUII pEC50 = […]; for efficacy, increase in intracellular calcium: percentages of the baseline (baseline normalized to 100%), Fluo-4 AM peak fluorescence, similar to efficacies evoked by hUII and mURP, approximate ('around')
Procedure: CHO cells stably transfected with the human UII receptor (hUT-CHO) (Chatenet et al. 2004) were plated at a density of 4 x 10^4 cells/well in flat clear bottom black 96-well plates. Measures of intracellular calcium mobilization were performed as previously described (Dubessy et al. 2008) with slight modifications. Briefly, after 24 h in culture, cells were incubated for 1 h in a humidified incubator (37°C, 5% CO2) with 2 μM Fluo-4 acetoxymethyl ester (AM) calcium dye (Life Technologies) in Hank’s Buffer Saline Solution (HBSS; Life Technologies) buffered with 5 mM HEPES and supplemented with 2.5 mM probenecid (Sigma-Aldrich, Saint-Quentin Fallavier, France). Cells were washed twice with HBSS/HEPES/probenecid to remove Fluo-4 AM from the incubation medium and incubated in 150 μl of the same medium at 37°C for 15 min. Fluorescence was recorded using a Flexstation 3 fluorescence plate reader system (Molecular Devices, Saint-Grégoire, France) during 180 sec with an excitation wavelength of 485 nm, an emission wavelength of 525 nm and a cutoff filter of 515 nm. After 18 sec recording in basal conditions, 50 μl of graded concentration (10^-12 to 10^-6 M) of different peptides (4-fold final concentration) was added to the incubation medium with the built-in 8 channel pipettor at a rate of 47 μl/sec to assess their agonistic activity. After subtraction of mean fluorescence background from control wells without Fluo-4 AM, baseline was normalized to 100% and fluorescence peak values were determined for each concentration of peptide. Potency (EC50) and efficacy (Emax) were calculated with the Prism 5.0 software (GraphPad Software In., La Jolla, CA, USA) using a four-parameter logistic equation to fit peak fluorescence data.
For intracellular calcium mobilization assays, results from 7–13 independent experiments were expressed as mean ± SEM of Log(EC50) and plotted with box and whiskers. The normality of each data set was verified with the Shapiro-Wilk’s test and a one-way ANOVA test followed by a Tukey’s multiple comparison test to compare Log(EC50) between each peptide. Differences were considered significant where P<0.05.

[1] = hUT-CHO cells, one-way ANOVA followed by Tukey's test on Log(EC50)

Row | SMILES | EC50 [nM] | potency compared with the other tested peptides (hUT-CHO cells, vs hUII, URP1 and URP2, one-way ANOVA followed by Tukey's test on Log(EC50), P<0.05) | comparison of potency of URP1 and URP2 to activate the hUT [1] | times less potent than hUII to mobilize intracellular calcium (hUT-CHO cells) [times] | efficacy, increase in intracellular calcium (hUT-CHO cells)
1 | CC(C)[C@H](NC(=O)[C@@H]1CSSC[C@H](NC(=O)[C@H](C)N)C(=O)N[C@@H](Cc2ccccc2)C(=O)N[C@@H](Cc2c[nH]c3ccccc23)C(=O)N[C@@H](CCCCN)C(=O)N[C@@H](Cc2ccc(O)cc2)C(=O)N1)C(=O)O [mURP, reference compound] | 2.45 | intermediate potency | – | – | –
2 | CC(C)[C@H](N)C(=O)N[C@H]1CSSC[C@@H](C(=O)N[C@@H](CO)C(=O)N[C@@H](CCC(N)=O)C(=O)N[C@@H](CC(N)=O)C(=O)O)NC(=O)[C@H](Cc2ccc(O)cc2)NC(=O)[C@H](CCCCN)NC(=O)[C@H](Cc2c[nH]c3ccccc23)NC(=O)[C@H](Cc2ccccc2)NC1=O [URP2] (H-VCFWKYCSQN-OH; disulfide 2-7) | 30.2 | – | equipotent to activate the hUT | 83 | 200–250%
3 | CC(C)[C@H](NC(=O)[C@@H]1CSSC[C@H](NC(=O)[C@H](C)N)C(=O)N[C@@H](Cc2ccccc2)C(=O)N[C@@H](Cc2c[nH]c3ccccc23)C(=O)N[C@@H](CCCCN)C(=O)N[C@@H](Cc2ccc(O)cc2)C(=O)N1)C(=O)N[C@H](C(=O)N[C@@H](CC(N)=O)C(=O)O)[C@@H](C)O [URP1] (H-ACFWKYCVTN-OH; disulfide 2-7) | 10.2 | – | equipotent to activate the hUT | 28 | 200–250%
